# How the values were obtained:
# [1] = tested on: EGFR; assay: EGFR phosphorylation at Tyr845 / CD95-driven EGFR activation; format: cell-based, human; conditions: MDA-MB-468 cells exposed to cl-CD95L
# Protocol: Cells were lysed for 30 min at 4° C. in lysis buffer [25 mM HEPES (pH 7.4), 1% v/v Triton X-100, 150 mM NaCl, and 2 mM EGTA supplemented with a mix of protease inhibitors (Sigma-Aldrich)]. Protein concentration was determined by the bicinchoninic acid method (PIERCE, Rockford, Ill., USA) according to the manufacturer's protocol. Proteins were separated by SDS-PAGE and transferred to a nitrocellulose membrane (GE Healthcare, Buckinghamshire, England). The membrane was blocked for 15 min with TBST (50 mM Tris, 160 mM NaCl, 0.05% v/v Tween 20, pH 7.8) containing 5% w/v dried skimmed milk (TBSTM) and then incubated overnight with primary antibody at 4° C. in TBSTM. The membrane was intensively washed (TBST) and peroxidase-labeled anti-rabbit or anti-mouse (SouthernBiotech, Birmingham, Ala., US) was added for 45 min. The proteins were visualized with the enhanced chemiluminescence substrate kit (ECL, GE Healthcare).
# [2] = target: T1, CD95 (Homo sapiens, UniProt P25445); assay: MISC immunoprecipitation; format: cell-based; conditions: MDA-MB-231 and MDA-MB-468 cells stimulated with cl-CD95L
# T1 construct: endogenous in cells; host or cells: MDA-MB-231 and MDA-MB-468 human TNBC breast cancer cells
# T1 sequence (P25445 26-335): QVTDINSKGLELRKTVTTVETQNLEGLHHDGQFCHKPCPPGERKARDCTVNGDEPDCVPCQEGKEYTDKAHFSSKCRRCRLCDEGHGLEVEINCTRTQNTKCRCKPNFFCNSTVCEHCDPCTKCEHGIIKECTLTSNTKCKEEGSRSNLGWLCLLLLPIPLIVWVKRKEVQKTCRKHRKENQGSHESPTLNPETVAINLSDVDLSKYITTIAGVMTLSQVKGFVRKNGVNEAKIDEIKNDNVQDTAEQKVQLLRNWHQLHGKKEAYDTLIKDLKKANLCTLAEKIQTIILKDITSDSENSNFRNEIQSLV
# T1 sequence (P48023 130-281 partner limits assumed): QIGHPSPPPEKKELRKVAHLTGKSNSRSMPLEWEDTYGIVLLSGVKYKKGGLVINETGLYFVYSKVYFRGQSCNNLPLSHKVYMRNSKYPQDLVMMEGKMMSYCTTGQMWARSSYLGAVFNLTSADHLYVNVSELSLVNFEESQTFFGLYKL
# Protocol: Breast cancer cells (20×10^6 cells per condition) were incubated with 100 ng/ml cl-CD95L for the indicated times. The cells were then lysed, 1 μg of Apo1-3 was added to the cell lysate and CD95 was immunoprecipitated by the addition of protein A-sepharose beads (Sigma-Aldrich). For the immunoprecipitation of EGF-R, 1 μg mouse anti-EGF-R (Santa Cruz Biotechnology, CA, USA) was added to the cell lysate and EGF-R was immunoprecipitated with protein A-sepharose beads (Sigma-Aldrich). After extensive washing, the immune complex was resolved by SDS-PAGE.
# [3] = tested on: NADPHox; assay: Flow cytometry analysis of intracellular ROS (H2FDA); format: cell-based, human
# Protocol: Cells were pre-incubated for 30 min at 37° C. with 3 μM of H2FDA resuspended in PBS. The cells were then pre-incubated for an additional 30 min with or without ROS inhibitors before stimulation with 100 ng/ml cl-CD95L for the indicated times. Cells were then washed and analyzed by FACScalibur (BD Bioscience).
# [4] = tested on: PI3K; assay: Immunoblot of Akt phosphorylation at Ser473 (hallmark of PI3K activation) in cells exposed to cl-CD95L; format: cell-based, human; conditions: all tested TNBC cell lines
# Protocol: Cells were lysed for 30 min at 4° C. in lysis buffer [25 mM HEPES (pH 7.4), 1% v/v Triton X-100, 150 mM NaCl, and 2 mM EGTA supplemented with a mix of protease inhibitors (Sigma-Aldrich)]. Protein concentration was determined by the bicinchoninic acid method (PIERCE, Rockford, Ill., USA) according to the manufacturer's protocol. Proteins were separated by SDS-PAGE and transferred to a nitrocellulose membrane (GE Healthcare, Buckinghamshire, England). […] The proteins were visualized with the enhanced chemiluminescence substrate kit (ECL, GE Healthcare).
# [5] = tested on: TNBC breast cancer cell lines (Hs578T, MDA-MB-231 and MDA-MB-468); assay: In vitro motility assay (Boyden chambers); format: cell-based, human
# Protocol: Boyden chambers (Millipore, Molsheim, France) containing 8 μm pore membranes were cultured in 24-well plates. After hydration of the membranes, 10^5 cells were added to the top chamber in low serum (1%)-containing medium. […] Cells were cultured for 24 h at 37° C. in a 5% CO2 humidified incubator. To quantify invasion, cells were fixed with methanol and stained with Giemsa. Stained cells were then removed from the top side of the membrane using a cotton-tipped swab and five representative pictures for each insert were taken of the invading cells from the reverse side. For each experiment, cells were lysed and absorbance at 560 nm was measured.
substance,measurement,setting,value
cl-CD95L: soluble ligand produced by metalloprotease cleavage of the transmembrane CD95L (FasL); produced in transfected 293 cells,phosphorylation of EGFR at Tyr845,[1],resulted in phosphorylation of EGFR at Tyr845
same,time of peak of EGFR Tyr845 phosphorylation,[1],2 min
same,time of stimulation after which EGFR Tyr845 phosphorylation disappeared,[1],10 min
same,MISC formation,[2],induces MISC formation
same,intracellular ROS in breast cancer cells exposed to cl-CD95L,[3],rapid increase in intracellular ROS
same,phosphorylation of Akt at Ser473 induced by CD95L,[4],induced rapid phosphorylation of Akt
same,motility of TNBC cells stimulated with cl-CD95L,"[5]; Hs578T, MDA-MB-231 and MDA-MB-468, Boyden chambers",dramatic increase in motility
same,"migration of TNBC cells, titration of cl-CD95L",[5]; cl-CD95L at 100 pg/ml,induced migration of TNBC cells

# Reference: US20150377888A1, “Methods for Predicting and Preventing Metastasis in Triple Negative Breast Cancers” (INSERM (INSTITUT NATIONAL DE LA SANTÉ ET DE LA RECHERCHE …, priority 2013, published 2015)
